± gives the standard deviation of the averaged measurements.
Columns and labels:
Experiment in all cases: level (log10 ratio to DMSO vehicle control); higher = higher biomarker level / cell amount than vehicle control
Settings in all cases: in DMSO
Perfluorooctanamide = compound: NC(=O)C(F)(F)C(F)(F)C(F)(F)C(F)(F)C(F)(F)C(F)(F)C(F)(F)F [Perfluorooctanamide]
Procedure: (§1)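 BioMAP Diversity Plus panel of 12 human primary cell co-culture systems (3C, 4H, LPS, SAg, BT, BF4T, BE3C, CASM3C, HDF3CGF, KF3CT, MyoF, Mphg). Compounds were added 1 h before stimulation and left for 24 h (MyoF 48 h; BT 72 h for soluble read-outs or 6 d for IgG). Biomarkers were read by ELISA, cytotoxicity by SRB, PBMC viability and proliferation by Alamar Blue. Each well value was divided by the mean of 8 DMSO control wells on the same plate and log10 transformed; duplicate blinded samples were tested at 4 concentrations.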

[1] = compound: CNS(=O)(=O)C(F)(F)C(F)(F)C(F)(F)C(F)(F)C(F)(F)C(F)(F)C(F)(F)C(F)(F)F [N-Methylperfluorooctanesulfonamide]
Procedure: as §1

[2] = compound: O=C(O)C(F)(F)OC(F)(F)C(F)(F)OC(F)(F)C(F)(F)C(F)(F)C(F)(F)F [Perfluoro-3,6-dioxadecanoic acid]
Procedure: as §1

[3] = compound: OCC(F)(F)C(F)(F)C(F)(F)C(F)(F)C(F)(F)C(F)F [1H,1H,7H-Dodecafluoro-1-heptanol]
Procedure: as §1

[4] = compound: CC(C)(C)C(=O)CC(=O)C(F)(F)C(F)(F)C(F)(F)F [(Heptafluorobutanoyl)pivaloylmethane]
Procedure: as §1

[5] = compound: O=C(O)C(F)(F)C(F)(F)C(F)(F)C(F)(F)C(F)(F)C(F)(F)C(F)(F)C(F)(F)C(F)(F)C(F)(F)C(F)(F)C(F)(F)F [Perfluorotridecanoic acid]
Procedure: as §1

Test System	level (log10) (Perfluorooctanamide; 6700 nM)	level (log10) (Perfluorooctanamide; 20000 nM)	level (log10) (Perfluorooctanamide; 60000 nM)	level (log10) ([1]; 6700 nM)	level (log10) ([1]; 20000 nM)	level (log10) ([1]; 60000 nM)	level (log10) ([2]; 6700 nM)	level (log10) ([2]; 20000 nM)	level (log10) ([2]; 60000 nM)	level (log10) ([3]; 6700 nM)	level (log10) ([3]; 20000 nM)	level (log10) ([3]; 60000 nM)	level (log10) ([4]; 6700 nM)	level (log10) ([4]; 20000 nM)	level (log10) ([4]; 60000 nM)	level (log10) ([5]; 1500 nM)	level (log10) ([5]; 4400 nM)	level (log10) ([5]; 13000 nM)	level (log10) ([5]; 40000 nM)
LPS:sTNF-alpha	-0.036 ± 0.034	-0.025 ± 0.0085	-0.028 ± 0.0071	0.0045 ± 0.073	-0.012 ± 0.1	0.0085 ± 0.13	0.012 ± 0.011	0.0155 ± 0.018	0.0135 ± 0.015	-0.06 ± 0.028	-0.04 ± 0.042	-0.023 ± 0.073	-0.001 ± 0.0014	0.0195 ± 0.0064	0.07 ± 0.014	-0.0185 ± 0.0092	-0.016 ± 0.018	-0.0375 ± 0.025	-0.0485 ± 0.021
SAg:CCL2/MCP-1	-0.008 ± 0.021	-0.02 ± 0.018	-0.0085 ± 0.042	-0.0205 ± 0.0035	-0.003 ± 0.011	-0.004 ± 0.0085	0.017 ± 0.088	-0.0255 ± 0.00071	-0.0895 ± 0.026	0.0005 ± 0.005	-0.0035 ± 0.00071	0.0225 ± 0.029	-0.005	-0.0155 ± 0.0035	-0.0085 ± 0.05	-0.013 ± 0.016	-0.0275 ± 0.0035	-0.0265 ± 0.0064	0.005 ± 0.014
SAg:CD38	0.0005 ± 0.005	0.0085 ± 0.028	0.003 ± 0.018	-0.012 ± 0.0085	-0.0255 ± 0.012	-0.0515 ± 0.0064	-0.0115 ± 0.0021	-0.021 ± 0.0057	-0.061 ± 0.069	0.0005 ± 0.013	0.0105 ± 0.019	0.0075 ± 0.022	0.0075 ± 0.097	0.017 ± 0.065	-0.0125 ± 0.00071	-0.017 ± 0.014	-0.037 ± 0.02	-0.0245 ± 0.018	-0.027 ± 0.0028
SAg:CD40	-0.0215 ± 0.028	-0.0195 ± 0.0064	-0.021 ± 0.033	-0.016 ± 0.02	-0.0415 ± 0.012	-0.0695 ± 0.025	0.003 ± 0.0028	-0.0195 ± 0.016	-0.08 ± 0.052	0.015 ± 0.0099	0 ± 0.018	-0.0015 ± 0.005	-0.0125 ± 0.011	-0.0335 ± 0.0021	-0.0515 ± 0.0078	-0.021 ± 0.017	-0.071 ± 0.0057	-0.0705 ± 0.06	-0.497 ± 0.044
SAg:CD62E/E-Selectin	-0.0135 ± 0.035	-0.0265 ± 0.00071	0.0145 ± 0.0092	-0.021 ± 0.0042	-0.0475 ± 0.019	-0.043 ± 0.0071	0.027 ± 0.058	0.0485 ± 0.025	0.065 ± 0.081	-0.0075 ± 0.0021	-0.0205 ± 0.013	-0.02 ± 0.0057	-0.003 ± 0.042	-0.0235 ± 0.005	-0.106 ± 0.04	0.0065 ± 0.018	-0.0015 ± 0.0064	0.012 ± 0.0057	0.006 ± 0.0014
SAg:CD69	-0.002 ± 0.028	0.0025 ± 0.013	-0.0065 ± 0.023	-0.0325 ± 0.0064	-0.0405 ± 0.022	-0.0685 ± 0.053	0 ± 0.013	-0.0405 ± 0.00071	-0.105 ± 0.067	-0.004 ± 0.013	-0.0015 ± 0.021	-0.002 ± 0.016	-0.027 ± 0.023	-0.023 ± 0.02	-0.007 ± 0.014	-0.0075 ± 0.037	-0.053 ± 0.03	-0.0305 ± 0.025	-0.0685 ± 0.0078
SAg:CXCL8/IL-8	-0.019 ± 0.041	-0.0255 ± 0.0021	0.056	-0.0435 ± 0.026	-0.0395 ± 0.005	-0.0275 ± 0.0035	-0.018 ± 0.0028	-0.0295 ± 0.018	-0.0385 ± 0.022	0.025 ± 0.0028	0.008 ± 0.0071	0.037 ± 0.038	-0.0195 ± 0.046	-0.062 ± 0.024	-0.098 ± 0.14	0.018 ± 0.072	-0.0025 ± 0.021	-0.001 ± 0.0057	0.0035 ± 0.09
SAg:CXCL9/MIG	-0.0075 ± 0.005	-0.0025 ± 0.012	0.009 ± 0.0057	-0.006 ± 0.017	-0.0065 ± 0.0021	-0.013 ± 0.011	-0.0095 ± 0.016	-0.0135 ± 0.013	0.01 ± 0.0042	0.006 ± 0.0071	-0.006 ± 0.0071	0.01 ± 0.0099	-0.002 ± 0.011	0.0015 ± 0.00071	0.002 ± 0.016	-0.002 ± 0.0028	-0.013	-0.016 ± 0.0028	0.0035 ± 0.018
SAg:PBMC Cytotoxicity	-0.027 ± 0.038	-0.0135 ± 0.025	0.024 ± 0.034	0.0065 ± 0.018	0.034 ± 0.0042	0.044 ± 0.045	0.03 ± 0.0085	0.0395 ± 0.018	0.0705 ± 0.00071	0.001 ± 0.0099	0.028 ± 0.067	-0.039 ± 0.0028	-0.0265 ± 0.013	-0.007 ± 0.017	-0.124 ± 0.15	-0.0045 ± 0.021	0.0025 ± 0.0021	-0.061 ± 0.042	-0.0085 ± 0.028
SAg:Proliferation	-0.05 ± 0.071	-0.0255 ± 0.033	-0.001 ± 0.0014	-0.0295 ± 0.026	-0.0755 ± 0.0092	-0.048 ± 0.1	-0.007 ± 0.03	0.023 ± 0.033	0.0095 ± 0.043	-0.003 ± 0.014	0.03 ± 0.037	0.007 ± 0.018	-0.0415 ± 0.011	-0.033 ± 0.0057	-0.0835 ± 0.1	-0.019 ± 0.047	-0.0125 ± 0.005	-0.066 ± 0.023	-0.036 ± 0.031
SAg:SRB	0.002 ± 0.0071	-0.0005 ± 0.0064	-0.009 ± 0.0014	-0.0095 ± 0.022	-0.021 ± 0.02	-0.0685 ± 0.036	-0.016 ± 0.0014	-0.0085 ± 0.021	-0.0855 ± 0.037	-0.014 ± 0.017	-0.0105 ± 0.028	-0.013 ± 0.011	-0.0035 ± 0.0092	-0.0025 ± 0.005	-0.031 ± 0.034	-0.0015 ± 0.011	-0.0095 ± 0.0035	-0.0045 ± 0.012	-0.0335 ± 0.026

From the supplement of paper PMC10331698
